Read-outs that look alike come from different tables or passages of the source.
Legend:
Assay type in all cases: physicochemical
[1] = Interconversion study of potassium salt Form 1 and Form 2 (slurry of equal amounts); conditions: for XRPD result: 20 V, stirred overnight
Experimental: Interconversion study were performed in MeOH/EA (1/9, RT or 50° C.) and acetone/water (20/1, RT or 50° C.). Equal amounts of Form 1 and Form 2 were slurried in specified solvents at different temperatures for certain time.

[2] = Solubility in water and bio-relevant media at 37° C. (HPLC of filtrate, pH of filtrate, XRPD of filter cake); conditions: for solubility at 0.5 h / solubility at 2 h / solubility at 24 h: 37 °C, thermodynamic from solid; for solubility at 0.5 h / Solubility (mg/mL) 2 h / Solubility (mg/mL) 24 h / Solubility (mg/mL) 0.5 h / solubility at 2 h / solubility at 24 h: 37° C.; for solubility at 0.5 h: read-out: Solubility (mg/mL) 0.5 h; for XRPD: filter cake obtained at 2 or 24 hours; for PH 0.5 h / PH 2 h / PH 24 h: pH of the filtrate; for solubility at 2 h: read-out: Solubility (mg/mL) 2 h; for solubility at 24 h: read-out: Solubility (mg/mL) 24 h
Experimental: Solubility of Form I of free acid, Form 1 and Form 2 of potassium salt, and Form A of sodium salt were tested in water and in bio-relevant media of Simulated Intestinal Fluid (SIF), Simulated Gastric Fluid (SGF), Fasted State Simulated Intestinal Fluid (FaSSIF), and Fed State Simulated Intestinal Fluid (FeSSIF) at 37° C. up to 24 hours. About 12 mg of the sample was weighed into sample vials and then 1.5 mL of each media was added to make suspensions respectively. All suspensions were shaken at 37° C. with 200 rpm.

[3] = Solid state stability at 60° C. and 40° C./75% RH for 7 days (HPLC purity, XRPD); conditions: for chemical and physical stability: 40° C./75% RH and 60° C. for 7 days; for Purity at Day 7 (Area %) 40° C./75% RH: 7 days at 40° C./75% RH; for Purity at Day 7 (Area %) 40° C./75% RH / Purity at Day 7 (Area %) 60° C.: HPLC; for Purity at Day 7 (Area %) 60° C.: 7 days at 60° C.; for XRPD 40° C./75% RH: crystal form after 7 days at 40° C./75% RH; for XRPD 60° C.: crystal form after 7 days at 60° C.; for Initial Purity (Area %): day 0, HPLC
Experimental: HPLC analysis was performed with an Agilent HPLC 1260 series instrument.
Appropriate amount of free acid Form I, potassium salts Form 1 and Form 2, and sodium salt Form A were placed at 60° C. and 40° C./75% RH for 7 days. At 0 and 7 days, the samples were dissolved in diluent to prepare a solution of 0.5 mg/mL for HPLC purity analysis. Solid samples were analyzed by XRPD to check the crystal form.

[4] = Dynamic Vapor Sorption (DVS); conditions: for hygroscopicity: DVS; for water uptake / weight gain by DVS: at 80% RH (Form I: 0 to 80% RH), 25° C.
Experimental: Dynamic Vapor Sorption (DVS): Moisture sorption/desorption data was collected on a IGASorp DVS. The sample was placed into a tarred sample chamber and weighed automatically. The sample was dried at 50° C. until the % RH was less than 0.3% and cooled to 25° C. Set the instrument parameters as below.

[5] = FaSSIF (Fasted State Simulated Intestinal Fluid), fassif, FaSSIF, LOQ is 0.5 μg/mL
[6] = FeSSIF (Fed State Simulated Intestinal Fluid), fessif, FeSSIF
[7] = water, water, Water, LOQ is 0.5 μg/mL

## Cc1nn(-c2cc(Cl)c(Oc3cc(C(C)C)c(=O)[nH]n3)c(Cl)c2)c(=O)[n-]c1=O.[K+] [Potassium Salts Form 1 and 2]
[1]; 50° C., Acetone/Water (19/1)
  XRPD result: Form 2
[1]; 50° C., MeOH/EtOAc (1/9)
  XRPD result: Form 1
[1]; RT, Acetone/Water (19/1)
  XRPD result: Form 2
[1]; RT, MeOH/EtOAc (1/9)
  XRPD result: Form 1

## Cc1nn(-c2cc(Cl)c(Oc3cc(C(C)C)c(=O)[nH]n3)c(Cl)c2)c(=O)[n-]c1=O.[K+] [Potassium salt Form 2]
[2]; [5]
  solubility at 0.5 h: 0.0011 mg/mL
[2]; FaSSIF, LOQ is 0.5 μg/mL
  Solubility (mg/mL) 2 h: 0.015 mg/mL
[2]; FaSSIF
  Solubility (mg/mL) 24 h: 0.0070 mg/mL
  XRPD: Free acid
  PH 0.5 h: 7.04
  PH 2 h: 7.49
  PH 24 h: 7.90
[2]; FeSSIF
  Solubility (mg/mL) 0.5 h: 0.0041 mg/mL
  Solubility (mg/mL) 2 h: 0.013 mg/mL
  Solubility (mg/mL) 24 h: 0.022 mg/mL
  XRPD: Free acid
  PH 0.5 h: 5.09
  PH 2 h: 5.24
  PH 24 h: 5.17
[2]; SGF, LOQ is 0.5 μg/mL
  Solubility (mg/mL) 0.5 h: <LOQ
  Solubility (mg/mL) 2 h: <LOQ
  Solubility (mg/mL) 24 h: <LOQ
[2]; SIF, LOQ is 0.5 μg/mL
  Solubility (mg/mL) 0.5 h: <LOQ
  Solubility (mg/mL) 2 h: <LOQ
  Solubility (mg/mL) 24 h: <LOQ
[2]; Water, LOQ is 0.5 μg/mL
  Solubility (mg/mL) 0.5 h: 4.63 mg/mL
  Solubility (mg/mL) 2 h: 6.69 mg/mL
  Solubility (mg/mL) 24 h: 6.71 mg/mL
[2]; SGF
  XRPD: Free acid
  PH 0.5 h: 1.35
  PH 2 h: 1.25
  PH 24 h: 1.25
[2]; SIF
  XRPD: Free acid
  PH 0.5 h: 7.43
  PH 2 h: 7.51
  PH 24 h: 7.46
[2]; Water
  XRPD: Free acid
  PH 0.5 h: 10.49
  PH 2 h: 10.62
  PH 24 h: 10.42
[3]
  chemical and physical stability: chemically and physically stable
  Purity at Day 7 (Area %) 40° C./75% RH: 98.97 Area %
  Purity at Day 7 (Area %) 60° C.: 99.07 Area %
  XRPD 40° C./75% RH: Unchanged
  XRPD 60° C.: Unchanged
  Initial Purity (Area %): 99.04 Area %
[1]; slurry in MeOH/EA and acetone/water, RT or 50° C.
  relative stability of Form 1 and Form 2: more stable in aqueous solution
[4]; 80% RH, forms of potassium salt of Compound 1
  DVS Water % at 80% RH: 1.6%
[4]
  hygroscopicity: slight hygroscopic
  water uptake / weight gain by DVS: 1.6%
[4]; XRPD after DVS
  crystal form of solid after the DVS study: remained unchanged

## Cc1nn(-c2cc(Cl)c(Oc3cc(C(C)C)c(=O)[nH]n3)c(Cl)c2)c(=O)[n-]c1=O.[Na+] [Sodium salt Form A]
[2]; [5]
  solubility at 0.5 h: 0.0013 mg/mL
  solubility at 2 h: 0.015 mg/mL
[2]; FaSSIF (Fasted State Simulated Intestinal Fluid), fassif, FaSSIF
  solubility at 24 h: 0.013 mg/mL
[2]; [6]
  solubility at 0.5 h: 0.0011 mg/mL
  solubility at 2 h: 0.0029 mg/mL
  solubility at 24 h: 0.012 mg/mL
[2]; SGF, LOQ is 0.5 μg/mL
  Solubility (mg/mL) 0.5 h: <LOQ
  Solubility (mg/mL) 2 h: <LOQ
  Solubility (mg/mL) 24 h: <LOQ
[2]; SIF, LOQ is 0.5 μg/mL
  Solubility (mg/mL) 0.5 h: <LOQ
  Solubility (mg/mL) 2 h: <LOQ
  Solubility (mg/mL) 24 h: <LOQ
[2]; FaSSIF
  XRPD: Free acid
  PH 0.5 h: 7.07
  PH 2 h: 7.33
  PH 24 h: 8.27
[2]; FeSSIF
  XRPD: Free acid
  PH 0.5 h: 5.09
  PH 2 h: 5.18
  PH 24 h: 5.26
[2]; SGF
  XRPD: Free acid
  PH 0.5 h: 1.24
  PH 2 h: 1.24
  PH 24 h: 1.24
[2]; SIF
  XRPD: Free acid
  PH 0.5 h: 7.23
  PH 2 h: 7.60
  PH 24 h: 7.65
[2]; Water
  XRPD: Free acid +
  PH 0.5 h: 10.76
  PH 2 h: 10.81
  PH 24 h: 10.63
[2]; [7]
  solubility at 0.5 h: 2.8 mg/mL
  solubility at 2 h: 3.51 mg/mL
  solubility at 24 h: 4.57 mg/mL
[3]
  chemical and physical stability: chemically and physically stable
  Purity at Day 7 (Area %) 40° C./75% RH: 98.02 Area %
  Purity at Day 7 (Area %) 60° C.: 98.01 Area %
  XRPD 40° C./75% RH: Unchanged
  XRPD 60° C.: Unchanged
  Initial Purity (Area %): 97.98 Area %
[4]
  hygroscopicity: slightly hygroscopic
  water uptake / weight gain by DVS: about 1.6%
